Molecular target: T1, levansucrase of G. albidus TMW 2.1191 (Gluconobacter albidus, UniProt A0A149SZ56)
T1 construct: gene lsc-2; cloned levansucrase gene expressed from pBAD in E. coli Top 10, crude lysate (Ni-NTA purification failed); native released enzyme ~48 kDa monomer, also tested in crude buffer supernatant
T1 sequence (A0A149SZ56 1-436): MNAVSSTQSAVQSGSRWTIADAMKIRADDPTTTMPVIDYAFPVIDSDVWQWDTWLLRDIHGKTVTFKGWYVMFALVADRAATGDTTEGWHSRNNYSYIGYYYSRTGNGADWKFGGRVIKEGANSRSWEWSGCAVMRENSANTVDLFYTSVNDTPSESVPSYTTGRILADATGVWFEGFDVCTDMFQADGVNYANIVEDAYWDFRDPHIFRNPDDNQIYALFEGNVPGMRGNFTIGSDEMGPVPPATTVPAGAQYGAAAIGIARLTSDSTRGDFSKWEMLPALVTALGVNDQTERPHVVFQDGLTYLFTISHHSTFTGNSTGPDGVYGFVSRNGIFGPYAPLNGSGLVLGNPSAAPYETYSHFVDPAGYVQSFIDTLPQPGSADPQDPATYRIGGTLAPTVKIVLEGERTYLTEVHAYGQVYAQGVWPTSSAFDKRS
Test: glucose/fructose release, enzymatic D-fructose/D-glucose kit
Assay type: cell-based
Conditions: E. coli lysate with recombinant enzyme; pH 3.0-7.0, 30 °C, 1 h; hydrolysis and transfructosylation

In the case of `OC[C@H]1O[C@@](CO)(O[C@H]2O[C@H](CO)[C@@H](O)[C@H](O)[C@H]2O)[C@@H](O)[C@@H]1O` [sucrose], the volumetric activity is reported as “the enzyme exhibits comparable activities and Michaelis–Menten kinetics within a broad pH range”.

Reference: article PMC7272483, “Insights into the pH-dependent, extracellular sucrose utilization and concomitant levan formation by Gluconobacter albidus TMW 2.1191” (Antonie Van Leeuwenhoek, 2020)
